Like-named read-outs stand apart in the source and are kept apart here. Values belong to the compound of their own block, whether it stands above or below them.
Key:
Type in all cases: cell-based, human
[1] = system: HIF-1α–NanoLuc; experiment: HIF-1α–NanoLuc reporter gene assay (qHTS primary and confirmatory screens)
[2] = system: hypoxia response element-beta-lactamase (HRE–bla); experiment: HRE-bla reporter gene assay in ME-180 cells; settings: Table S7, confirmatory screen; for Emax / IC50: Homo sapiens, ME-180; for Emax: read-out: HRE–bla confirmatory Efficacy; for IC50: read-out: HRE–bla confirmatory IC50
[3] = system: HRE–bla ME-180 cells; experiment: Viability (BLA): CellTiter-Glo counter screen in HRE–bla cells; settings: Table S7, 1% O2, 18 h
[4] = Homo sapiens, Table S1, primary screen, hypoxia 1% O2, 18 h, read-out: IC50 (primary screen, HIF-1α–NanoLuc assay)
[5] = Homo sapiens, Table S1, primary screen, read-out: Efficacy (primary screen, HIF-1α–NanoLuc assay)
[6] = Homo sapiens, Table S2, primary screen, read-out: Pathway inhibitors (primary screen) HIF-1α–NanoLuc Activity Efficacy
[7] = Homo sapiens, Table S2, primary screen, read-out: Pathway inhibitors (primary screen) HIF-1α–NanoLuc Activity IC50
[8] = Homo sapiens, Table S2, validation, read-out: Pathway inhibitors (validation) HIF-1α–NanoLuc Activity Efficacy
[9] = Homo sapiens, Table S2, validation, read-out: Pathway inhibitors (validation) HIF-1α–NanoLuc Activity IC50

IC50 [1, 4]: 1190 nM
SMILES: COC(=O)C1=C(C)NC(C)=C(C(=O)OCCc2ccc(N3CCN(C(c4ccccc4)c4ccccc4)CC3)cc2)C1c1cccc([N+](=O)[O-])c1 (centres unmarked) [Vatanidipine]
Emax [1, 5]: 103%

Pathway inhibitors (validation) HIF-1α–NanoLuc Activity IC50 ([1]; Table S2, validation): Inactive
SMILES: O=c1[nH]c(=S)[nH]c(-c2ccccc2)c1Cc1c(O)ccc2ccccc12 [Cambinol]

IC50 [1, 4]: 9440 nM
SMILES: COC(=O)C1=C(C)NC(C)=C(C(=O)OCCN2CCN(C(c3ccccc3)c3ccccc3)CC2)C1c1cccc([N+](=O)[O-])c1 (centres unmarked) [Manidipine]
Emax [1, 5]: 86%

Pathway inhibitors (primary screen) HIF-1α–NanoLuc Activity IC50 ([1]; Table S2, primary screen): Inactive
SMILES: CNC(=O)c1ccccc1Sc1ccc2c(/C=C/c3ccccn3)n[nH]c2c1 [Axitinib]

IC50 [1, 4]: 10600 nM
SMILES: Cc1ccc(-c2cc(C(F)(F)F)nn2-c2ccc(S(N)(=O)=O)cc2)cc1 [Celecoxib]
Emax [1, 5]: 43%

IC50 ([1]; Table S2, validation, read-out: Pathway inhibitors (validation) HIF-1α–NanoLuc Activity IC50): 1410 ± 230 nM
SMILES: N#Cc1c(Oc2ccc(F)c(NC(=O)Cc3cccc(C(F)(F)F)c3)c2)ccc2nc(NC(=O)C3CC3)sc12 [TAK-632]
Pathway inhibitors (validation) HIF-1α–NanoLuc Activity Efficacy ([1]; Table S2, validation): 85 ± 2%

IC50 [1, 4]: 300 nM
SMILES: COc1cccc2c1C(=O)c1c(O)c3c(c(O)c1C2=O)C[C@@](O)(C(=O)CO)C[C@@H]3O[C@H]1C[C@H](N)[C@@H](O)[C@H](C)O1 [Epirubicin]
Emax [1, 5]: 108%

IC50 [1, 7]: 420 nM
SMILES: NC1(c2ccc(-c3nc4ccn5c(=O)[nH]nc5c4cc3-c3ccccc3)cc2)CCC1 [MK-2206]
Emax [1, 6]: 45%

IC50 [1, 4]: 11900 nM
SMILES: COC(=O)C1=C(C)NC(C)=C(C(=O)OC(C)(C)CN(C)CCC(c2ccccc2)c2ccccc2)C1c1cccc([N+](=O)[O-])c1 (centres unmarked) [Lercanidipine]
Emax [1, 5]: 63%

The next lines start with the compound.

SMILES: COc1cc(Nc2c(C#N)cnc3cc(OCCCN4CCN(C)CC4)c(OC)cc23)c(Cl)cc1Cl [Bosutinib]
Emax [1, 6]: 58%
IC50 [1, 7]: 11900 nM

SMILES: CC[C@H]1CN2CCc3cc(OC)c(OC)cc3[C@@H]2C[C@@H]1C[C@H]1NCCc2cc(OC)c(OC)cc21 [Emetine]
Emax [2]: 91 ± 1%
IC50 [2]: 290 ± 50 nM
Viability (BLA) confirmatory IC50 [3]: Inactive

SMILES: COc1ccccc1N1CCN(CC(O)COc2cccc3ccccc23)CC1 (centres unmarked) [Naftopidil]
HRE–bla confirmatory IC50 [2]: Inactive
Viability (BLA) confirmatory IC50 [3]: Inactive

SMILES: Cn1cc(C2=C(c3cn(C4CCN(Cc5ccccn5)CC4)c4ccccc34)C(=O)NC2=O)c2ccccc21 [Enzastaurin]
Emax [1, 6]: 39%
IC50 [1, 7]: 15000 nM
Emax [1, 8]: 67 ± 6%
IC50 [1, 9]: 2060 ± 3300 nM

SMILES: OCc1ccc(-c2nn(Cc3ccccc3)c3ccccc23)o1 [YC-1]
Effect on HIF-1α–NanoLuc level / luciferase activity, in words ([1]; HCT116 reporter cells): decrease in luciferase expression in a concentration response manner

SMILES: Cc1oncc1C(=O)Nc1ccc(C(F)(F)F)cc1 [Leflunomide]
HRE–bla confirmatory IC50 [2]: Inactive
Viability (BLA) confirmatory IC50 [3]: Inactive

SMILES: CC[C@@]1(O)C(=O)OCc2c1cc1n(c2=O)Cc2c-1nc1ccccc1c2/C=N/OC(C)(C)C [Gimatecan]
IC50 [1, 4]: 600 nM
Emax [1, 5]: 108%
Emax [1, 6]: 108%

SMILES: COc1ccc2cc3[n+](cc2c1OC)CCc1cc2c(cc1-3)OCO2 [Berberine]
IC50 [1, 4]: 940 nM
Emax [1, 5]: 116%

SMILES: Cc1ccc(C(=O)Nc2ccc(S(=O)(=O)O)c3cc(S(=O)(=O)O)cc(S(=O)(=O)O)c23)cc1NC(=O)c1cccc(NC(=O)Nc2cccc(C(=O)Nc3cc(C(=O)Nc4ccc(S(=O)(=O)O)c5cc(S(=O)(=O)O)cc(S(=O)(=O)O)c45)ccc3C)c2)c1 [Suramin]
Emax [1, 8]: 41 ± 7%
IC50 [1, 9]: 24500 ± 3130 nM

SMILES: COc1cccc2c1C(=O)c1c(O)c3c(c(O)c1C2=O)C[C@@](O)(C(=O)CO)C[C@@H]3O[C@H]1C[C@H](N2CCO[C@H](OC)C2)[C@H](O)[C@H](C)O1 [Nemorubicin]
IC50 ([1]; Homo sapiens, 18 h, read-out: IC50 (primary screen, HIF-1α–NanoLuc assay)): 80 nM
Emax ([1]; Homo sapiens, read-out: Efficacy (primary screen, HIF-1α–NanoLuc assay)): 111%

SMILES: Cc1cc(C)c(/C=C2\C(=O)Nc3ccccc32)[nH]1 [SU-5416]
Emax [2]: 111 ± 12%
IC50 [2]: 12800 ± 840 nM
Viability (BLA) confirmatory IC50 [3]: Inactive

SMILES: Cc1c(O)cccc1C(=O)N[C@@H](CSc1ccccc1)[C@H](O)CN1C[C@H]2CCCC[C@H]2C[C@H]1C(=O)NC(C)(C)C [Nelfinavir]
IC50 [1, 4]: 21100 nM
Emax [1, 5]: 120%
